Data from patent US12077503B2, “Substituted cyclic amides and their use as herbicides” (FMC CORPORATION, priority 2015, dated 2024).
Where two headings read alike, the source gives them in different places.

Assays:
Format in all cases: in vivo
[1] = tested on: pigweed (Amaranthus retroflexus); assay: Test A preemergence; conditions: Amaranthus retroflexus, pre-emergence, 240 h; for pest or weed control at 125 g/ha: 125 g ai/ha, 0 to 100 scale where 0 is no effect and 100 is complete control; for pest or weed control at 500 g/ha: 500 g ai/ha
[2] = tested on: Kochia (Kochia scoparia); assay: Test A preemergence; conditions: Bassia scoparia, pre-emergence, 240 h; for pest or weed control at 125 g/ha: 125 g ai/ha, 0 to 100 scale where 0 is no effect and 100 is complete control; for pest or weed control at 500 g/ha: 500 g ai/ha
Procedure, shortened: (§1)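 Visual injury, scored on a 0–100 scale relative to untreated controls, was recorded about 10 d after application. Treatments were a preemergence soil spray over planted seeds or a postemergence spray on plants at the one- to two-leaf stage, 2 to 10 cm tall, all in loam soil–sand blend in the greenhouse.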

[3] = tested on: barnyardgrass (Echinochloa crus-galli); assay: Test A preemergence; conditions: Echinochloa crus-galli, pre-emergence, 240 h; for pest or weed control at 125 g/ha: 125 g ai/ha, 0 to 100 scale where 0 is no effect and 100 is complete control; for pest or weed control at 500 g/ha: 500 g ai/ha
Procedure, shortened: as §1

[4] = tested on: ryegrass, Italian (Italian ryegrass, Lolium multiflorum); assay: Test A preemergence; conditions: Lolium multiflorum, pre-emergence, 240 h; for pest or weed control at 500 g/ha: 500 g ai/ha
Procedure, shortened: as §1

[5] = tested on: giant foxtail (Setaria faberii); assay: Test A preemergence; conditions: Setaria faberi, pre-emergence, 240 h; for pest or weed control at 125 g/ha: 125 g ai/ha, 0 to 100 scale where 0 is no effect and 100 is complete control; for pest or weed control at 500 g/ha: 500 g ai/ha
Procedure, shortened: as §1

[6] = tested on: ragweed (common ragweed, Ambrosia elatior); assay: Test A preemergence; conditions: Ambrosia artemisiifolia, pre-emergence, 240 h; for pest or weed control at 500 g/ha: 500 g ai/ha
Procedure, shortened: as §1

[7] = tested on: pigweed (Amaranthus retroflexus); assay: Test A postemergence; conditions: Amaranthus retroflexus, post-emergence, 240 h, 125 g ai/ha, Postemergence; visual injury after approximately 10 d; 0 to 100 scale where 0 is no effect and 100 is complete control; read-out: Plant response rating, Pigweed
Procedure, shortened: as §1

[8] = tested on: blackgrass (Alopecurus myosuroides); assay: Test A postemergence; conditions: Alopecurus myosuroides, post-emergence, 240 h, 125 g ai/ha, Postemergence; visual injury after approximately 10 d; 0 to 100 scale where 0 is no effect and 100 is complete control; read-out: Plant response rating, Blackgrass
Procedure, shortened: as §1

[9] = tested on: Kochia (Kochia scoparia); assay: Test A postemergence; conditions: Bassia scoparia, post-emergence, 240 h, 125 g ai/ha, Postemergence; visual injury after approximately 10 d; 0 to 100 scale where 0 is no effect and 100 is complete control; read-out: Plant response rating, Kochia
Procedure, shortened: as §1

[10] = tested on: Galium (catchweed bedstraw, Galium aparine); assay: Test A postemergence; conditions: Galium, post-emergence, 240 h, 125 g ai/ha, Postemergence; visual injury after approximately 10 d; 0 to 100 scale where 0 is no effect and 100 is complete control; read-out: Plant response rating, Galium
Procedure, shortened: as §1

[11] = tested on: barnyardgrass (Echinochloa crus-galli); assay: Test A postemergence; conditions: Echinochloa crus-galli, post-emergence, 240 h, 125 g ai/ha, Postemergence; visual injury after approximately 10 d; 0 to 100 scale where 0 is no effect and 100 is complete control; read-out: Plant response rating, Barnyardgrass
Procedure, shortened: as §1

[12] = tested on: ryegrass, Italian (Italian ryegrass, Lolium multiflorum); assay: Test A postemergence; conditions: Lolium multiflorum, post-emergence, 240 h, 125 g ai/ha, Postemergence; visual injury after approximately 10 d; 0 to 100 scale where 0 is no effect and 100 is complete control; read-out: Plant response rating, Ryegrass, Italian
Procedure, shortened: as §1

[13] = tested on: giant foxtail (Setaria faberii); assay: Test A postemergence; conditions: Setaria faberi, post-emergence, 240 h, 125 g ai/ha, Postemergence; visual injury after approximately 10 d; 0 to 100 scale where 0 is no effect and 100 is complete control; read-out: Plant response rating, Foxtail, Giant
Procedure, shortened: as §1

[14] = tested on: wheat (Triticum aestivum); assay: Test A postemergence; conditions: Triticum aestivum, post-emergence, 240 h, 125 g ai/ha, Postemergence; visual injury after approximately 10 d; 0 to 100 scale where 0 is no effect and 100 is complete control; read-out: Plant response rating, Wheat
Procedure, shortened: as §1

[15] = tested on: corn (Zea mays); assay: Test A postemergence; conditions: Zea mays, post-emergence, 240 h, 125 g ai/ha, Postemergence; visual injury after approximately 10 d; 0 to 100 scale where 0 is no effect and 100 is complete control
Procedure, shortened: as §1

[16] = tested on: ragweed (common ragweed, Ambrosia elatior); assay: Test A postemergence; conditions: Ambrosia artemisiifolia, post-emergence, 240 h, 125 g ai/ha, Postemergence; visual injury after approximately 10 d; 0 to 100 scale where 0 is no effect and 100 is complete control; read-out: Plant response rating, Ragweed
Procedure, shortened: as §1

[17] = preemergence, read-out: Pigweed plant response rating
[18] = preemergence, read-out: Kochia plant response rating
[19] = preemergence, read-out: Barnyardgrass plant response rating
[20] = preemergence, read-out: Foxtail, Giant plant response rating
[21] = preemergence, visual injury rating about 10 d after treatment, 0 to 100 scale (0 no effect, 100 complete control), read-out: Pigweed plant response rating
[22] = preemergence, visual injury rating about 10 d after treatment, 0 to 100 scale (0 no effect, 100 complete control), read-out: Kochia plant response rating
[23] = preemergence, visual injury rating about 10 d after treatment, 0 to 100 scale (0 no effect, 100 complete control), read-out: Barnyardgrass plant response rating
[24] = preemergence, visual injury rating about 10 d after treatment, 0 to 100 scale (0 no effect, 100 complete control), read-out: Ryegrass, Italian plant response rating
[25] = preemergence, visual injury rating about 10 d after treatment, 0 to 100 scale (0 no effect, 100 complete control), read-out: Foxtail, Giant plant response rating
[26] = preemergence, visual injury rating about 10 d after treatment, 0 to 100 scale (0 no effect, 100 complete control), read-out: Ragweed plant response rating

Row | Structure (SMILES) | pest or weed control at 125 g/ha [1, 17] | pest or weed control at 125 g/ha [2, 18] | pest or weed control at 125 g/ha [3, 19] | pest or weed control at 125 g/ha [5, 20] | pest or weed control at 125 g/ha [7] | pest or weed control at 125 g/ha [8] | pest or weed control at 125 g/ha [9] | pest or weed control at 125 g/ha [10] | pest or weed control at 125 g/ha [11] | pest or weed control at 125 g/ha [12] | pest or weed control at 125 g/ha [13] | plant injury at 125 g/ha [14] | Corn plant response rating (crop injury, 0 = no effect, 100 = complete kill) at 125 g/ha [15] | pest or weed control at 125 g/ha [16] | pest or weed control at 500 g/ha [1, 21] | pest or weed control at 500 g/ha [2, 22] | pest or weed control at 500 g/ha [3, 23] | pest or weed control at 500 g/ha [4, 24] | pest or weed control at 500 g/ha [5, 25] | pest or weed control at 500 g/ha [6, 26] | further results
1 | O=C(Nc1cccc(F)c1F)[C@H]1C(=O)N(C2CC2)CC[C@@H]1c1cccc(C(F)(F)F)c1 [Compound 925] | 0% | 0% | 30% | 80% | 0% | 0% | 0% | 0% | 40% | 0% | 40% | 0% | 0% | 0% | – | – | – | – | – | – | pest or weed control at 500 g/ha ([1]; Preemergence, visual injury vs untreated controls after approximately 10 d, read-out: Pigweed plant response rating (0 to 100 scale where 0 is no effect and 100 is complete control)): 0%; pest or weed control at 500 g/ha ([2]; Preemergence, visual injury vs untreated controls after approximately 10 d, read-out: Kochia plant response rating (0 to 100 scale where 0 is no effect and 100 is complete control)): 0%; pest or weed control at 500 g/ha ([3]; Preemergence, visual injury vs untreated controls after approximately 10 d, read-out: Barnyardgrass plant response rating (0 to 100 scale where 0 is no effect and 100 is complete control)): 90%; pest or weed control at 125 g/ha ([4]; 125 g ai/ha, preemergence, 0 to 100 scale where 0 is no effect and 100 is complete control, read-out: Ryegrass, Italian plant response rating): 30%; pest or weed control at 500 g/ha ([4]; Preemergence, visual injury vs untreated controls after approximately 10 d, read-out: Ryegrass, Italian plant response rating (0 to 100 scale where 0 is no effect and 100 is complete control)): 30%; pest or weed control at 500 g/ha ([5]; Preemergence, visual injury vs untreated controls after approximately 10 d, read-out: Foxtail, Giant plant response rating (0 to 100 scale where 0 is no effect and 100 is complete control)): 90%; pest or weed control at 125 g/ha ([6]; 125 g ai/ha, preemergence, 0 to 100 scale where 0 is no effect and 100 is complete control, read-out: Ragweed plant response rating): 0%; pest or weed control at 500 g/ha ([6]; Preemergence, visual injury vs untreated controls after approximately 10 d, read-out: Ragweed plant response rating (0 to 100 scale where 0 is no effect and 100 is complete control)): 0%
2 | Cc1cc([C@H]2CN(C)C(=O)[C@@H]2C(=O)Nc2cccc(F)c2F)ccc1Cl [Compound 929] | 20% | 70% | 90% | 90% | 20% | 40% | 40% | 50% | 90% | 50% | 90% | 30% | 40% | 20% | 50% | 90% | 90% | 80% | 90% | 30% | –
3 | Cc1cc([C@H]2CN(C)C(=O)[C@@H]2C(=O)Nc2ccc(F)c(F)c2F)ccc1Cl [Compound 931] | 30% | 90% | 90% | 90% | 20% | 20% | 30% | 40% | 80% | 30% | 90% | 30% | 70% | 0% | 40% | 90% | 90% | 70% | 90% | 30% | –
4 | Cc1cc([C@H]2CN(C)C(=O)[C@@H]2C(=O)Nc2ccccc2C(F)(F)F)ccc1Cl [Compound 932] | 0% | 40% | 90% | 90% | 40% | 40% | 30% | 40% | 90% | 30% | 90% | 30% | 20% | 0% | 30% | 70% | 90% | 60% | 100% | 30% | –
5 | C=CCOc1cccc(C2CN(C)C(=O)C2C(=O)Nc2cccc(F)c2F)c1 (stereo not drawn) [Compound 933] | 30% | 50% | 90% | 90% | 0% | 20% | 50% | 50% | 90% | 40% | 90% | 20% | 40% | 0% | 30% | 90% | 100% | 70% | 100% | 90% | –
